Earlier results on one compound are cited in patent publication US20260337593A1, “METHOD AND MEANS FOR ENGINEERING NON-RIBOSOMAL PEPTIDES” (JOHANN WOLFGANG GOETHE-UNIVERSITÄT FRANKFURT AM MAIN, priority 2022, published 2026).

The target of this series is Mycobacterium tuberculosis proteasome (Mycobacterium tuberculosis, UniProt P9WHT9). The settings on record: role: inhibitor; literature reference 60.
Sequence of Mycobacterium tuberculosis proteasome (P9WHT9 whole entry, looked up): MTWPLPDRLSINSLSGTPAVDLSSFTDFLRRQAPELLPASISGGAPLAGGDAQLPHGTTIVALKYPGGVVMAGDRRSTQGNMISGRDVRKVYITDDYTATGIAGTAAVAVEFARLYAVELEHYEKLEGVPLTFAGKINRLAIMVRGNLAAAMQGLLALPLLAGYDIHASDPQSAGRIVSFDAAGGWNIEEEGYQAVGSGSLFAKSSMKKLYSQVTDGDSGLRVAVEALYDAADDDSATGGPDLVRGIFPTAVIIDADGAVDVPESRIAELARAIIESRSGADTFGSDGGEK

`CCCCCCCCC[C@@H](O)CC(=O)N[C@@H](CC(N)=O)C(=O)N[C@@H](CCC(N)=O)C(=O)N[C@H](C=O)CC(C)C` [fellutamide B]: the “binding of the active site's threonine” value is “reversible binding”.
